Experimental data from US20260373136A1, “A NOVEL DOSAGE REGIMEN USING LOW DOSES OF DONEPEZIL OR DERIVATIVE THEREOF FOR PREVENTING OR TREATING A COMPULSIVE DISORDER” (SORBONNE UNIVERSITE, priority 2022, published 2026).
Like-named read-outs stand apart in the source and are kept apart here.

Legend:
[1] = Generalized Anxiety Disorders Assessment (GAD-7) questionnaire before and after treatment; format: in vivo, human; conditions: for anxiety: GAD-7 post vs pre-treatment; for General anxiety disorder (GAD-7) score, post treatment: 5-9 mild, 10-14 moderate, 15-21 severe anxiety
Description: (§1) 6 anorexic patients were treated with donepezil: 5 of them with a daily dose according to the present invention and 1 with a higher dose (comparative).
(§2) The studies were led in hospital. Each case is presented below.
(§3) The treatment started with a daily dose of donepezil of 0.5 mg for 10 days then the daily dose was increased to 1 mg for 7 days then increased to 1.5 mg for 71 days (2 months and 10 days) then increased to 2 mg for 22 days and then increased to 2.5 mg and remains on this dose for 4 months and 18 days.
Patient #2 anxiety has also been evaluated with Generalized Anxiety Disorders Assessment (GAD-7) questionnaire (available on https://adaa.org/sites/default/files/GAD-7_Anxiety-updated_O.pdf) before and after the treatment. The following scores have been obtained:
The score obtained with questionary GAD-7 is classified as follows: • 5-9: mild anxiety; 10-14: moderate anxiety; 15-21: severe anxiety
(§4) The treatment started with a daily dose of donepezil of 0.5 mg for 13 days then the daily dose was increased to 0.75 mg for 9 days then increased to 1 mg for 17 days and then increased to 1.5 mg and remained at this dosage for a month then stopped for two months and then restarted with a daily dose of 1.5 mg that remains within 1 month and then discontinued.
Patient #4 anxiety has also been evaluated with questionnaire GAD-7 before and after the treatment. The following scores have been obtained:
(§5) The treatment started with a daily dose of donepezil of 0.5 mg for 8 days and then the daily dose was increased to 1 mg for 9 days and then increased to 1.67 mg for 62 days and then increased to 2.5 mg.
Patient #6 anxiety has also been evaluated with questionnaire GAD-7 before and after the treatment. The following scores have been obtained:
The score obtained with questionnaire GAD-7 is classified as follows: • 5-9: mild anxiety; 10-14: moderate anxiety; 15-21: severe anxiety

[2] = Clinical observation of eating disorder behaviours and cognitions of anorexic patients treated with donepezil; format: in vivo, human
Description: as §1, §2
(§6) Patient #2 is a person who developed anorexia nervosa restricting type in adolescence. They were very restricted in the types of food they ate and could not eat food that was processed or high in sugar or fats. They exercised 3-4 hours a day. They were unable to reduce their exercising even minimally […] becoming flooded with debilitating anxiety. They were unable to eat enough to maintain a healthy weight. Their BMI was 18.5 kg/m^2 and was medically stable when they started donepezil.
as §3
Patient #3 is a person with a 20-year history of anorexia nervosa binge/purge type who had been in recovery for two years before relapsing following a relationship trauma. They were slowly losing weight and was bingeing and purging multiple times every evening. They also were waking up every morning at 4 am to exercise obsessively for hours. They were spending all their disposable income on binge foods and was slowly draining their savings. At times they were stealing food to binge on.
The treatment started with a daily dose of donepezil of 0.5 mg for 10 days and then the daily dose was increased to 1 mg for 9 days and then increased to 1.5 mg for 17 days and then increased to 2 mg for 7 days and then increased to 2.5 mg for 16 days and then discontinued.
as §4
A patient who has suffered from anorexia nervosa during their second pregnancy. They have been vigilant about their caloric intake and body image since their adolescence. They also suffer from recurrent depression treated with venlafaxine 75 mg per day and a generalized anxiety disorder. Undernutrition worsened markedly, reaching a minimum BMI of 11 kg/m^2. The maximum lifetime BMI excluding pregnancy is 19.8 kg/m^2. The symptomatology is dominated by qualitative and quantitative food restriction and physical hyperactivity. There is a period of several months of hyperphagia and provoked vomiting. Neurocognitive executive functions are preserved, there is a high tolerance of delayed reward measured by Delay Discounting Task.
Donepezil was taken at a rate of 2.5 mg per day for 2 months.
A person with a 20-year history of anorexia nervosa-binge/purge subtype and a comorbid history or obsessive-compulsive disorder. They have been very symptomatic throughout their adolescence and went into a partial remission in early adulthood. Over the next 10 years, their symptoms waxed and waned and they had 2 major relapses that they had slowly recovered from. They were currently weight restored but following some environmental stresses, was starting to relapse. They were struggling with increasing eating disordered ruminations and cognitions, increasing body image distortions and dissatisfaction. They were becoming more rigid and restrictive in their eating. They also saw a rise in their obsessive-compulsive disorder symptoms.
as §5

[3] = Yale-Brown Obsessive Compulsive Scale questionnaire (Y-BOCS) before and after treatment; format: in vivo, human; conditions: for OCD symptoms: Y-BOCS post vs pre-treatment; for Y-BOCS score, post treatment: 0-7 subclinical, 8-15 mild, 16-23 moderate, 24-31 severe, 32-40 extreme symptoms
Description: as §1, §2, §3
Patient #2 obsessive-compulsive disorders (OCD) symptoms have also been evaluated with the Yale-Brown Obsessive Compulsive Scale questionnaire (Y-BOCS) (available on https://pcl.psychiatry.uw.edu/wp-content/uploads/2021/12/YBOCS.pdf) before and after the treatment. The following scores have been obtained:
The score obtained with questionnaire Y-BOCS is classified as follows: • 0-7: subclinical; 8-15: mild symptoms; 16-23: moderate symptoms; 24-31: severe symptoms; 32-40: extreme symptoms
as §4
Patient #4 obsessive-compulsive disorders (OCD) symptoms have also been evaluated with questionnaire Y-BOCS-before and after the treatment. The following scores have been obtained:
as §5
Patient #6 obsessive-compulsive disorders (OCD) symptoms have also been evaluated with questionnaire Y-BOCS-before and after the treatment.

[4] = Body weight / BMI of anorexic patients treated with donepezil; format: in vivo, human
Description: The term “Body Mass Index” (BMI) is calculated by dividing the body mass of an individual (in kg) by his height (in […]). The BMI is generally used to evaluate if an individual suffers from under nutrition or on the contrary if he/she suffers from overweight or obesity.
as §1, §2, §6, §3, §4
A patient who has suffered from anorexia nervosa during their second pregnancy. They have been vigilant about their caloric intake and body image since their adolescence. […] The symptomatology is dominated by qualitative and quantitative food restriction and physical hyperactivity. […] Neurocognitive executive functions are preserved, there is a high tolerance of delayed reward measured by Delay Discounting Task. […]

[5] = Patient #2, daily dose 0.5-2.5 mg
[6] = Patient #4, daily dose 0.5 to 1.5 mg
[7] = Patient #6, daily dose 0.5 mg to 2.5 mg
[8] = Patient #2, daily dose 0.5-2.5 mg, over the next 5 months
[9] = Patient #3, daily dose 0.5-2.5 mg, within a month of starting
[10] = Patient #6, daily dose 0.5 mg to 2.5 mg, over 3 months
[11] = low dose between 0.5 and 2.5 mg/day, clinical cases overall (conclusion)

COc1cc2c(cc1OC)C(=O)C(CC1CCN(Cc3ccccc3)CC1)C2 (centres unmarked) [donepezil]
anxiety [1, 5]: diminution of their anxiety
General anxiety disorder (GAD-7) score, post treatment ([1]; Patient #2, daily dose 0.5-2.5 mg, pre-treatment score 16): 12
anxiety [1, 6]: diminution of their anxiety
General anxiety disorder (GAD-7) score, post treatment ([1]; Patient #4, daily dose 0.5 to 1.5 mg, pre-treatment score 16): 9
anxiety [1, 7]: strong diminution of their anxiety
General anxiety disorder (GAD-7) score, post treatment ([1]; Patient #6, daily dose 0.5 mg to 2.5 mg, pre-treatment score 15): 3
flexibility with eating [2, 8]: able to be more flexible with their eating and incorporate a wider variety of foods
preoccupation with weight or appearance [2, 8]: much less preoccupied with their weight or appearance
ruminations and compulsions to exercise [2, 8]: decrease in ruminations and compulsions to exercise
exercise per day ([2]; Patient #2, daily dose 0.5-2.5 mg, over the next 5 months, exercised 3-4 hours a day before): 90 minutes a day
bingeing (and consequent purging) [2, 9]: able to reduce their bingeing (and consequent purging) significantly
stealing food [2, 9]: stopped stealing food completely
maximum spending on binge foods ([2]; Patient #3, daily dose 0.5-2.5 mg, within a month of starting, all disposable income before): ≤ 5.00 $
flexibility with eating and eating disordered cognitions ([2]; Patient #4, daily dose 1.5 mg, within a month): more flexible with their eating and less preoccupied with their eating disordered cognitions and urges to restrict and lose weight
flexibility with eating and weight after restart ([2]; Patient #4, donepezil restarted for a month at 1.5 mg daily, improvements continued after discontinuing): more flexible with their eating, and they started to gain weight slowly
eating disordered cognitions after stopping medication ([2]; Patient #4, two months without donepezil after 1st month at 1.5 mg daily): increasing rigidity in their eating disordered cognitions
ease of eating ([2]; Patient #5, 2.5 mg per day for 2 months, end of treatment period): began to eat more easily
eating disordered cognitions and ruminations [2, 10]: significant decrease in their eating disordered cognitions and ruminations
intensity of body image distress [2, 10]: reduction in the intensity of their body image distress
usefulness to treat anorexia and related compulsive behaviors [2, 11]: useful to treat anorexia and related compulsive behaviors
OCD symptoms [3, 5]: diminution of OCD symptoms
Y-BOCS score, post treatment ([3]; Patient #2, daily dose 0.5-2.5 mg, pre-treatment score 32): 22
OCD symptoms [3, 6]: diminution of OCD symptoms
Y-BOCS score, post treatment ([3]; Patient #4, daily dose 0.5 to 1.5 mg, pre-treatment score 28): 16
OCD symptoms [3, 7]: diminution of OCD symptoms
Y-BOCS score, post treatment ([3]; Patient #6, daily dose 0.5 mg to 2.5 mg, pre-treatment score 28): 17
BMI ([4]; Patient #2, daily dose 0.5-2.5 mg, over the next 5 months, BMI 18.5 kg/m^2 at start, maintained): over 20 kg/m^2
BMI ([4]; Patient #4, daily dose 1.5 mg, within a month, BMI plateaued after rise to 15 kg/m^2 before treatment): 15.6 kg/m^2
body weight ([4]; Patient #5, 2.5 mg per day for 2 months, from 27 kg, in 3 months): 36 kg
improvement and severe side effects (Other patients (#2-#6), 0.5-2.5 mg PO OD (conclusion)): improved without severe side effects
blood pressure (Patient #1 (comparative), 5 mg daily per os, in local emergency department, previously normal 120/70 mmHg, no other cause found, donepezil discontinued): 183/124
side-effects (Patient #1 (comparative), 5 mg daily per os, within 5 days, responded to over-the-counter pain medications): drowsiness and headaches
blood pressure (Patient #1 (comparative), 5 mg daily per os, within a week, previously normal 120/70 mmHg): 175/120
blood pressure (Patient #1 (comparative), next few weeks after discontinuing donepezil (5 mg daily), previously normal 120/70 mmHg): 140/95
severe side effect (Patient #1, 5 mg PO OD (conclusion)): severe side effect (high blood pressure and severe headache)
blood pressure [5]: remained unaffected
other side-effects [5]: no other side-effects
side effects [11]: without causing any side effects
